The test system of data set [1] is resistant green rice leafhopper (collected at Nakagawara). Briefly: Test 3: Effect on Resistant Green Rice Leafhopper (collected at Nakagawara). Type of data set: in vivo, Nephotettix cincticeps Uhler (Green rice leafhopper). The following applies: Nephotettix cincticeps, 24 h, read-out: Mortality (%), Green Rice Leafhopper Collected at Nakagawara. On the procedure:
(§1) To a mixture of 20 parts of the compound of the present invention and 20 parts of Sorpol SM-200 (registered tradename for the product supplied by Toho Chemical Industrial Co., Ltd.) was added 60 parts of xylol, and the mixture was suffciently blended. The obtained emulsifiable concentrate was diluted at a predetermined concentration with distilled water, and the obtained dilution was used.
(§2) Seedlings (having 2 to 3 leaves) of paddy rice were hydroponically cultured in a pot having a diameter of 5 cm. A chemical dilution having a concentration of 100 or 20 ppm, prepared in the same manner as described in Test 1, was applied with a sprayer at a rate of 3 ml per pot. The treated seedlings were air-dried and covered with a metal net cylinder, and female adults of resistant green rice leafhopper (collected at Nakagawara) and sensitive green rice leafhopper (collected at Chigasaki) were set, respectively, free in the pot at a density of 10 adults per pot. After 24 hours, the numbers of killed and living adults were counted and the mortality was calculated. The test was made on three pots and the average value was calculated.

A further data set concerns tobacco cutworm. The experiment in a line: Test 1: Effect on Tobacco Cutworm (leaf immersion), mortality after 24 hours. The data set is classed as in vivo. The following applies: second-instar larvae, 25° C. On the procedure: as §1
An emulsifiable concentrate of a test compound prepared according to the method described in Formulation Example 1 was diluted to a concentration of 100 or 20 ppm. Sweet-potato leaves were immersed in the dilution for 10 seconds, air-dried and placed in a plastic cup having a diameter of 10 cm. Then second-instar larvae of tobacco cutworm were set free in the cup. The cup was allowed to stand still in a thermostat chamber maintained at 25° C. After 24 hours, the numbers of killed and living larvae were counted and the mortality was calculated. The obtained result was expressed by an average value obtained from the mortality calculated in three test cups.

Data set [2] concerns sensitive green rice leafhopper (collected at Chigasaki). Briefly: whole plant or invertebrate. The data set is classed as in vivo. The following applies: Nephotettix cincticeps, sensitive female adults, 24 hours, read-out: Mortality (%), Green Rice Leafhopper Collected at Chigasaki. On the procedure:
as §1, §2

A short description of data set [3]: Test 9: Toxicity Test (acute oral toxicity, mice). The conditions noted are these: mouse, in vivo, po. On the procedure:
A predetermined amount of a solution or suspension of a test compound in corn oil was orally administered to male mice having a body weight of 19 to 23 g (0.2 ml per 10 g of the body weight). After 7 days, the number of killed mice was counted and the influences on the mice were examined.

The subject of another data set is diamond back moth. The experiment in a line: Test 4: Effect on Diamond Back Moth. The data set is classed as in vivo. The following applies: Plutella, third-instar larvae, 24 hours, read-out: Mortality (%). On the procedure: as §1
Cabbage leaves were spread in a plastic cup, and 10 third-instar larvae of diamond back moth were set free in the cup.
A chemical dilution having a concentration of 100 or 20 ppm, prepared in the same manner as described in Test 1, was applied from an applicator at a rate of 3 ml per cup.
After scattering of the chemical dilution, the cup was covered, and after 24 hours, the numbers of killed and living larvae were counted and the mortality was calculated. The test was made on three cups and the average value was calculated.

Our source for the mortality and LD50 values is US4570005A, “Process for the preparation of 2-arylpropyl ether or thioether derivatives” (priority 1980, dated 1986).

With `CCOC(=O)c1ccc(C(C)(C)COCc2cccc(Oc3ccccc3)c2)cc1` [Compound 85, 3-Phenoxybenzyl 2-(4-ethoxycarbonylphenyl)-2-methylpropyl ether], the mortality at 20 ppm in data set [1] stood at 100%; with tobacco cutworm it was 80%; in data set [2], 100%. The mortality at 100 ppm (in data set [1]; with tobacco cutworm; in data set [2]) was 100% throughout. Further, the LD50 at 168 h in data set [3] was above 500 mg/kg.
Consider `COCOc1ccc(C(C)(C)COCc2cccc(Oc3ccccc3)c2)cc1` [Compound 83, 3-Phenoxybenzyl 2-(4-methoxymethoxyphenyl)-2-methylpropyl ether], for which, in the data set with tobacco cutworm, the mortality at 20 ppm is 100% and the mortality at 100 ppm was 100%. The same compound registered a 50% lethal dose (LD50) at 168 h in data set [3] above 500 mg/kg.
For the compound `CCOc1ccc(C(C)(C)COCc2cccc(Oc3ccc(Br)cc3)c2)cc1` [Compound 66, 3-(4-Bromophenoxy)benzyl 2-(4-ethoxyphenyl)-2-methylpropyl ether], the mortality at 20 ppm came out at 100% in data set [1], 100% with tobacco cutworm, 60% in the data set on diamond back moth and 100% in data set [2]. Moreover, the mortality at 100 ppm (in data set [1]; with tobacco cutworm; in the data set with diamond back moth; in data set [2]) was 100% each time. Also, in data set [3], the LD50 at 168 h was above 500 mg/kg.
In the case of `CCC(C)Oc1ccc(C(C)(C)COCc2cccc(Oc3ccccc3)c2)cc1` (stereo not shown) [Compound 70, 3-Phenoxybenzyl 2-[4-(sec-butoxy)phenyl]-2-methylpropyl ether], the mortality at 20 ppm was found to be 100% in data set [1], 90% with tobacco cutworm and 100% in data set [2]. In addition, the mortality at 100 ppm (in data set [1]; in the data set with tobacco cutworm; in data set [2]) was 100% in each case. Further, the 50% lethal dose (LD50) at 168 h in data set [3] is above 500 mg/kg.
With `CC(C)(COCc1cccc(Oc2ccccc2)c1)c1ccc(OCCCl)cc1` [Compound 108, 3-Phenoxybenzyl 2-[4-(2-chloroethoxy)phenyl]-2-methylpropyl ether], the mortality at 20 ppm in data set [1] was 100%; with tobacco cutworm it was 100%; in data set [2], 95%. Also, the mortality at 100 ppm (in data set [1]; in the data set on tobacco cutworm; in data set [2]) was 100% each time. For the same compound, the LD50 at 168 h in data set [3] is above 500 mg/kg.
For `CC(C)(COCc1cccc(Oc2ccccc2)c1)c1ccc(OC(Cl)=C(Cl)Cl)cc1` [Compound 92, 3-Phenoxybenzyl 2-[(1,2,2-trichlorovinyloxy)phenyl]-2-methylpropyl ether], in the data set with tobacco cutworm, the mortality at 20 ppm amounted to 90% and the mortality at 100 ppm stood at 100%. The compound also came in with an LD50 at 168 h in data set [3] above 500 mg/kg.
The like results for `CC(C)(COCc1cccc(Oc2ccccc2)c1)c1ccc(C#N)cc1` [Compound 54, 3-Phenoxybenzyl 2-(4-cyanophenyl)-2-methylpropyl ether] were, in that order, 100%, 100% and above 500 mg/kg.
`CCOC(C)c1ccc(C(C)(C)COCc2cccc(Oc3ccccc3)c2)cc1` (stereo not shown) [Compound 84, 3-Phenoxybenzyl 2-[4-(1-ethoxyethyl)phenyl]-2-methylpropyl ether]: in the data set on diamond back moth, the mortality at 20 ppm was 60% and the mortality at 100 ppm turned out to be 100%. The compound further gave an LD50 at 168 h in data set [3] above 500 mg/kg.
On to `CC(=O)c1ccc(C(C)(C)COCc2cccc(Oc3ccccc3)c2)cc1` [Compound 60, 3-Phenoxybenzyl 2-(4-acetylphenyl)-2-methylpropyl ether], for which the mortality at 20 ppm in data set [1] came out at 90%; in the data set with tobacco cutworm, 80%; in data set [2], 60%. The mortality at 100 ppm (in data set [1]; with tobacco cutworm; in data set [2]) was 100% throughout. In addition, the LD50 at 168 h in data set [3] was above 500 mg/kg.
Take `CC(C)(COCc1cccc(Oc2ccccc2)c1)c1ccc(F)c(Cl)c1` [Compound 75]: in the data set on tobacco cutworm, the mortality at 20 ppm worked out at 80% and the mortality at 100 ppm is 100%. In addition, in data set [3], the median lethal dose (LD50) at 168 h was above 500 mg/kg.
The matching figures for `CCOCOc1ccc(C(C)(C)COCc2cccc(Oc3ccccc3)c2)cc1` [Compound 81, 3-Phenoxybenzyl 2-(4-ethoxymethoxyphenyl)-2-methylpropyl ether]: 90%, 100% and above 500 mg/kg.
The like results for `CC(C)(COCc1cccc(Oc2ccccc2)c1)c1ccc(Oc2ccccc2)cc1` [Compound 76, 3-Phenoxybenzyl 2-(4-phenoxyphenyl)-2-methylpropyl ether] were, in that order, 90%, 100% and above 500 mg/kg.
On to `CCSc1ccc(C(C)(C)COCc2cccc(Oc3ccccc3)c2)cc1` [Compound 100, 3-Phenoxybenzyl 2-(4-ethylthiophenyl)-2-methylpropyl ether], for which the figures for the mortality at 20 ppm (in data set [1]; in the data set on tobacco cutworm; in data set [2]) were 95%, 80% and 80%, respectively. The mortality at 100 ppm (in data set [1]; with tobacco cutworm; in data set [2]) was 100% each time. Besides, in data set [3], the median lethal dose (LD50) at 168 h was above 500 mg/kg.
In the data set with tobacco cutworm, `CCOc1ccc(C(C)(C)COCc2cccc(Oc3ccccc3)c2)cc1OC` [Compound 99, 3-Phenoxybenzyl-2-(4-ethoxy-3-methoxyphenyl)-2-methylpropyl ether] had a mortality at 20 ppm of 100% and a mortality at 100 ppm of 100%. Besides, in the data set with diamond back moth, the mortality at 20 ppm was 80% and the mortality at 100 ppm turned out to be 100%. Besides, the LD50 at 168 h in data set [3] is above 500 mg/kg.
Regarding `Cc1ccc2cc(C(C)(C)COCc3cccc(Oc4ccccc4)c3)ccc2c1` [Compound 71, 3-Phenoxybenzyl 2-(6-methyl-2-naphthyl)-2-methylpropyl ether], the mortality at 20 ppm in data set [1] amounted to 100%; in the data set on diamond back moth it was 60%; in data set [2] it was 100%. The mortality at 100 ppm (in data set [1]; with diamond back moth; in data set [2]) was 100% in each case. In data set [3], the LD50 at 168 h was above 500 mg/kg.
Regarding `CCOc1c(C)cc(C(C)(C)COCc2cccc(Oc3ccccc3)c2)cc1C` [Compound 97, 3-Phenoxybenzyl 2-(4-ethoxy-3,5-dimethylphenyl)-2-methylpropyl ether], the mortality at 20 ppm (in data set [1]; in the data set on tobacco cutworm; in data set [2]) was 100% in each case. The mortality at 100 ppm (in data set [1]; in the data set on tobacco cutworm; in data set [2]) was 100% in each case. Also, the LD50 at 168 h in data set [3] was above 500 mg/kg.
As for `CC(C)(COCc1cccc(Oc2ccc(F)cc2)c1)c1ccc(F)c(Cl)c1` [Compound 58, 3-(4-Fluorophenoxy)benzyl 2-(3-chloro-4-fluorophenyl)-2-methylpropyl ether], the mortality at 20 ppm (in data set [1]; in the data set with tobacco cutworm; in data set [2]) was 100% in each case. In addition, the mortality at 100 ppm (in data set [1]; in the data set with tobacco cutworm; in data set [2]) was 100% throughout. Also, in data set [3], the LD50 at 168 h is above 500 mg/kg.
